Experimental data: patent US7485632B2, “Cephalosporins” (Nabriva Therapeutics Forschungs GmbH, priority 2002, dated 2009)
Converted amounts (≈) assume the structure as drawn.

How the values were obtained:
Assay type in all cases: cell-based
[1] = test system: Staphylococcus aureus (MSSA); assay: Agar Dilution Test (NCCLS), MIC; settings: against Staphylococcus aureus (MSSA)
[2] = test system: Streptococcus pneumoniae; assay: Agar Dilution Test (NCCLS), MIC; settings: against Streptococcus pneumoniae
[3] = test system: Klebsiella; assay: Agar Dilution Test (NCCLS), MIC; settings: against Klebsiella
[4] = test system: Pseudomonas aeruginosa; assay: Antibacterial activity
[5] = test system: Klebsiella pneumoniae; assay: Agar Dilution Test (NCCLS), MIC; settings: against Klebsiella pneumoniae

## CN(/N=C/C1=C(C(=O)O)N2C(=O)[C@@H](NC(=O)/C(=N\OCF)c3nsc(N)n3)C2SC1)C(=N)N[C@H]1CC[C@H](N)CC1 (stereo partly drawn) [Example 1, 3-{(E)[[1-trans-(4-Amino-cyclohexylamino)-iminomethyl]-methylhydrazono]methyl}-7-{[(5-amino-1,2,4-thiadiazol-3-yl)-(Z)-(fluoromethoxyimino)-acetyl]amino}-3-cephem-4-carboxylic acid]
[1]
  MIC: 0.05 to 0.2 µg/mL (≈ 0.0837 to 0.335 µM)
[2]
  MIC: ~0.0125 µg/mL (≈ 0.0209 µM)
[3]
  MIC: 0.0125 to 0.8 µg/mL (≈ 0.0209 to 1.34 µM)
[4]
  activity against Pseudomonas aeruginosa: shows activtiy
[5]
  MIC: ~0.0125 µg/mL (≈ 0.0209 µM)
